Structures can show the parent of a compound that is named as a salt.
Tests used:
Format in all cases: cell-based
TLR2 [1] = biological target: T1, TLR2 (Homo sapiens, UniProt O60603); experiment: TLR2 antagonist screening assay, HEK Blue hTLR2 cells, competition with diprovocim; set-up: host or cells: HEK Blue hTLR2 cells
Description: TLRs signal through ligand-mediated dimerization or multimerization. TLR2 may partner with TLR1 or TLR6 to produce an agonist signal. Compounds that prevent agonist signaling, antagonists, may interfere with proper dimerization or with downstream signaling. The following assay was developed to identify and characterize novel TLR2 antagonists.
The in vitro TLR2 assay consists of a cell line that responds to TLR2 engagement by producing a factor that elicits a color change in the culture media and can be readily measured by various colorimetric detection methods. This assay enables the identification of existing and novel compounds that engage TLR2. Treating reporter cells with putative TLR2 antagonists will diminish the reporter response to TLR2 agonists.
TLR2 antagonists were screened for TLR2 binding and blocking with a competition assay. […] The assay was performed with Invivogen HEK Blue cells, which express the human TLR2 receptor as well as NFkB-inducible secreted Alkaline Phosphatase. Alkaline Phosphatase activity was proportional to TLR2 activation, and thus served as a colorimetric reporter.
HEK Blue hTLR2 cells (Invivogen) were grown in DMEM with 10% FBS (Seradigm). Cells were seeded at 40,000 cells/well in 96-well plates and incubated overnight to adhere. Media was replaced with 200 uL/well HEK Blue Detection Medium (Invivogen). […] Cells incubated for 16-24 hours, then absorbance at 600 nm was read on a SpectraMax M2 (Molecular Devices). […] Four parameter dose response curves were fit according to the following model, and IC50 values were reported: Y=Bottom+(Top-Bottom)/(1+(IC50/X)^HillSlope)
Where X is the antagonist concentration, Y is the normalized absorbance, Top and Bottom are the plateaus, IC50 is the concentration at half-maximal inhibition, and HillSlope is the slope factor.
• 1. HEK-Blue TLR2 cells are diluted in complete DME culture medium and plated into 96-well plates at 40,000 cells per well and cultured overnight. • 2. After 16-24 hours in culture, the media is removed and replaced with 200 microliters per well of HEK-Blue Detection media. • 3. TLR2 antagonists are diluted 100-fold from DMSO stocks into each well, yielding a final DMSO concentration of 1% in all wells. Reporter cells are treated for 1-2 hours, then treated with TLR2 agonist diluted to the EC50-70 concentration. • 4. Treated cells are cultured overnight and the following day are assayed in plate reader for Absorbance at 600 nanometer.

TLR2 [2] = biological target: T1, TLR2; experiment: TLR2 agonist screening assay, HEK-Blue TLR2 reporter cell line (NF-kB-driven SEAP, absorbance at 600 nm); set-up: host or cells: HEK-293 (HEK-Blue TLR2 reporter cell line); conditions: HEK-Blue TLR2 reporter cells, agonist mode
Summary of the method: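 HEK-293 cells expressing TLR2 with NF-kB-driven SEAP were plated at 40,000 per well. After 16-24 h, they were treated overnight with diluted agonists in detection medium (1% DMSO final). Absorbance at 600 nm was read, and EC50 values were fitted.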

TLR2 [3] = biological target: T1, TLR2; experiment: TLR2 in vitro functional assay, cytokine release from human monocytic cell line THP-1; conditions: THP-1 human monocytic cell line, average of all runs
Procedure: Cells of the immune system respond to TLR agonists in part by secreting cytokines. Functional assays for TLR2 agonists measure cytokine release from purified immune cells or immortalized cell lines derived from immune cells. Cytokine release is measured by standard ELISA approaches or multiplexed analysis using the Meso Scale Discovery (MSD) platform.
Following assay measurements utilizing either HEK-Blue detection or cytokine release, all data is analyzed with the GraphPad Prism8 statistical package to determine EC50, binding and activity metrics for the TLR2 modulators. […]
Numerous cell lines derived from various cell types can respond to TLR2 agonists with stereotyped cytokine and chemokine secretion. In particular, cell lines derived from macrophages respond robustly to TLR2 agonists by secreting a wide array of cytokines, including (but not limited to) TNF-alpha, IL-1, IL-10 and IL-12. The human monocytic cell line THP-1, the mouse macrophage line RAW-264.7, and the rat macrophage line NR8383 were used. For each assay, the respective cell lines were plated into 96-well plates overnight and then treated the following day with various TLR2-engaging compounds at varying concentrations. The next day, supernatants were collected and assayed by multiplex immunodetection for cytokines released (MSD detection kits for respective species).
Data provided in Table 5 is generated using protocols described in Example 45 and 46.

TLR2 [4] = biological target: T2, TLR2 (Mus musculus, UniProt Q9QUN7); experiment: TLR2 functional assay, cytokine release from RAW 264.7 mouse macrophage cell line; conditions: average of all runs
T2 construct: endogenous in cells; host or cells: RAW 264.7
Summary of the method: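 RAW 264.7 cells plated (about 40,000 per well) and treated with compounds at varying concentrations for 6–24 h (or overnight). Released cytokines in supernatant (e.g. TNF-alpha, IL-1, IL-10, IL-12) measured by ELISA or MSD multiplex; EC50 fitted.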

T1 sequence (O60603 21-784): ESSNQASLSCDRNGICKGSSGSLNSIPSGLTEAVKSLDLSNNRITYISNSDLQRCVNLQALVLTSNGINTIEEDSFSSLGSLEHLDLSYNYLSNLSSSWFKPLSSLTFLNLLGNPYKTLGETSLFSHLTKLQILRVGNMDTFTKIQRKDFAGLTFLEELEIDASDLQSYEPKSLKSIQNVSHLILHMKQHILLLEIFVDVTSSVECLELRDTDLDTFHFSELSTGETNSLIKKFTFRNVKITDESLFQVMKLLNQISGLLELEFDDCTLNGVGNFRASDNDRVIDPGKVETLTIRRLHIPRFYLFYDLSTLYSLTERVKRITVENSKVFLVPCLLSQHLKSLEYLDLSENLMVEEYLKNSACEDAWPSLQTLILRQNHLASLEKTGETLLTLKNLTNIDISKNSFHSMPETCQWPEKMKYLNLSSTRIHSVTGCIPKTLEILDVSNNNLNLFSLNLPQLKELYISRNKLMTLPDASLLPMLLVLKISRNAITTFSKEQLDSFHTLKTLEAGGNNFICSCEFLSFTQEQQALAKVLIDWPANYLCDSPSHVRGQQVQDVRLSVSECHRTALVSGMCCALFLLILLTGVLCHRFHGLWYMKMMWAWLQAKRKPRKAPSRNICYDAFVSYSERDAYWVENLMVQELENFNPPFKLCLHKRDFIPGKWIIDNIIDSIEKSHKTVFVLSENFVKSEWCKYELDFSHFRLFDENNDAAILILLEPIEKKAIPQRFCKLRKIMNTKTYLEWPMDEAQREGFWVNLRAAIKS
T2 sequence (Q9QUN7 25-784): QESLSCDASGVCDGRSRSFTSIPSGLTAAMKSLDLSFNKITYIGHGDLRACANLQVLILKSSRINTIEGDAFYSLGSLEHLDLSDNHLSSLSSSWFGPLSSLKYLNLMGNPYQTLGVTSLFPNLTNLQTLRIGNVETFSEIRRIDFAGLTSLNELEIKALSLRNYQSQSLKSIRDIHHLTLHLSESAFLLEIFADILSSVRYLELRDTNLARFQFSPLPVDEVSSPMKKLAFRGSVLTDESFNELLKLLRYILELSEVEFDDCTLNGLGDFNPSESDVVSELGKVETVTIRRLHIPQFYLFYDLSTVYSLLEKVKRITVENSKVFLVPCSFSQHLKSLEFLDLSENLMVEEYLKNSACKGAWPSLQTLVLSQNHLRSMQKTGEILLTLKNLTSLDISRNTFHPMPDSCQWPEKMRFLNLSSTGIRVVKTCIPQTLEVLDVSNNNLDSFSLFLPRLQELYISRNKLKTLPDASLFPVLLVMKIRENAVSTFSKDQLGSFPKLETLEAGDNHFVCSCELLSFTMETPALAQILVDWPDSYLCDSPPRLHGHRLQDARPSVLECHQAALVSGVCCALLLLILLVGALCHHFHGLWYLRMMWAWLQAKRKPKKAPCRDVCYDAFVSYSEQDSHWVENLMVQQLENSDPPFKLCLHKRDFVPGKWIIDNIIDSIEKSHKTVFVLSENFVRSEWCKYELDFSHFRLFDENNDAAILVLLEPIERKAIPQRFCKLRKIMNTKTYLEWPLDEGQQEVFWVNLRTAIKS

| SMILES | IC50 (TLR2 [1]) | EC50 (TLR2 [2]; average of all runs (Table 3)) | EC50 (TLR2 [2]; average of all runs (Table 4)) | EC50 (TLR2 [3]) | EC50 (TLR2 [4]) |
| --- | --- | --- | --- | --- | --- |
| CCCCCCCCCCCCCCC(=O)NC1CCN(C(=O)c2ccc(C(=O)N3C[C@@H](C(=O)N[C@H]4C[C@@H]4c4ccccc4)[C@H](C(=O)N[C@H]4C[C@@H]4c4ccccc4)C3)cc2)CC1 [Compound 008] | 351 to 1000 nM | > 1000 nM | – | – | – |
| CCCCCCCC(=O)N1CCCN(S(=O)(=O)c2ccc(C(=O)N3C[C@@H](C(=O)N[C@H]4C[C@@H]4c4ccccc4)[C@H](C(=O)N[C@H]4C[C@@H]4c4ccccc4)C3)cc2)CC1C(=O)NCCCCCC (single isomer, unassigned) [Compound 203, (3S,4S)-1-(4-(((R*)-3-(hexylcarbamoyl)-4-octanoyl-1,4-diazepan-1-yl)sulfonyl)benzoyl)-N3,N4-bis((1S,2R)-2-phenylcyclopropyl)pyrrolidine-3,4-dicarboxamide] | 351 to 1000 nM | – | > 1000 nM | – | – |
| O=C(N[C@H]1C[C@@H]1c1ccccc1)[C@@H]1CN(C(=O)c2ccc(C(=O)N3CC[C@@H](n4cnc(-c5ccc(C(F)(F)F)cc5)c4)C3)cc2)C[C@H]1C(=O)N[C@H]1C[C@@H]1c1ccccc1 [Compound 277] | 1 to 350 nM | – | > 1000 nM | – | – |
| CCCCCCCCCCCCCCNC(=O)[C@H]1CN(C(=O)c2ccc(C(=O)N3C[C@@H](C(=O)N[C@H]4C[C@@H]4c4ccccc4)[C@H](C(=O)N[C@H]4C[C@@H]4c4ccccc4)C3)cc2)CCN1C [Compound 059, (3S,4S)-1-(4-((R)-4-methyl-3-(tetradecylcarbamoyl)piperazine-1-carbonyl)benzoyl)-N3,N4-bis((1S,2R)-2-phenylcyclopropyl)pyrrolidine-3,4-dicarboxamide formate] | – | 0.1 to 50 nM | – | 0.1 to 50 nM | – |
| CCCCCCCCCCCCCCNC(=O)[C@H]1CN(C(=O)c2ccc(C(=O)N3C[C@@H](C(=O)N[C@H]4C[C@@H]4c4ccccc4)[C@H](C(=O)N[C@H]4C[C@@H]4c4ccccc4)C3)cc2)C[C@H]1OC (relative stereo) [Compound 108, (3S,4S)-1-(4-((3S*,4S*)-3-methoxy-4-(tetradecylcarbamoyl)pyrrolidine-1-carbonyl)benzoyl)-N3,N4-bis((1S,2R)-2-phenylcyclopropyl)pyrrolidine-3,4-dicarboxamide] | – | – | 0.1 to 50 nM | 0.1 to 50 nM | 51 to 350 nM |
| CCCCCCCO[C@@H]1CN(C(=O)c2ccc(C(=O)N3C[C@@H](C(=O)N[C@H]4C[C@@H]4c4ccccc4)[C@H](C(=O)N[C@H]4C[C@@H]4c4ccccc4)C3)cc2)C[C@H]1C(=O)NCCCCCC (single isomer, unassigned) [Compound 072, (3S,4S)-1-(4-((3S*,4R*)-3-(heptyloxy)-4-(hexylcarbamoyl)pyrrolidine-1-carbonyl)benzoyl)-N3,N4-bis((1S,2R)-2-phenylcyclopropyl)pyrrolidine-3,4-dicarboxamide] | – | 0.1 to 50 nM | – | 0.1 to 50 nM | – |
| CCCCCCNC(=O)[C@H](CNC(=O)c1ccc(C(=O)N2C[C@@H](C(=O)N[C@H]3C[C@@H]3c3ccccc3)[C@H](C(=O)N[C@H]3C[C@@H]3c3ccccc3)C2)cc1)NC(=O)CCCCCC [Compound 025, (3S,4S)-1-(4-(((S)-2-heptanamido-3-(hexylamino)-3-oxopropyl)carbamoyl)benzoyl)-N3,N4-bis((1S,2R)-2-phenylcyclopropyl)pyrrolidine-3,4-dicarboxamide] | – | 0.1 to 50 nM | – | 0.1 to 50 nM | – |
| CCCCCCCCCCCCCCC(=O)N[C@H]1CN(C(=O)c2ccc(C(=O)N3C[C@@H](C(=O)N[C@H]4C[C@@H]4c4ccccc4)[C@H](C(=O)N[C@H]4C[C@@H]4c4ccccc4)C3)cc2)C[C@@H]1OC [Compound 101, (3S,4S)-1-(4-((3S,4S)-3-methoxy-4-pentadecanamidopyrrolidine-1-carbonyl)benzoyl)-N3,N4-bis((1S,2R)-2-phenylcyclopropyl) pyrrolidine-3,4-dicarboxamide] | – | – | 0.1 to 50 nM | 0.1 to 50 nM | > 1000 nM |
| CCCCCCCCCCCCCCNC(=O)[C@@H]1CN(C(=O)c2ccc(C(=O)N3C[C@@H](C(=O)N[C@H]4C[C@@H]4c4ccccc4)[C@H](C(=O)N[C@H]4C[C@@H]4c4ccccc4)C3)cc2)C[C@@H]1O (single isomer, unassigned) [Compound 044, (3S,4S)-1-(4-((3R*,4R*)-3-hydroxy-4-(tetradecylcarbamoyl)pyrrolidine-1-carbonyl)benzoyl)-N3,N4-bis((1S,2R)-2-phenylcyclopropyl)pyrrolidine-3,4-dicarboxamide] | – | 0.1 to 50 nM | – | 0.1 to 50 nM | – |
| CCCCCCCCCCCCCCNC(=O)[C@@H]1CN(C(=O)c2ccc(C(=O)N3C[C@@H](C(=O)N[C@H]4C[C@@H]4c4ccccc4)[C@H](C(=O)N[C@H]4C[C@@H]4c4ccccc4)C3)cc2)C[C@H]1OC [Compound 109, (3S,4S)-1-(4-((3S,4R)-3-methoxy-4-(tetradecylcarbamoyl)pyrrolidine-1-carbonyl)benzoyl)-N3,N4-bis((1S,2R)-2-phenylcyclopropyl)pyrrolidine-3,4-dicarboxamide] | – | – | 0.1 to 50 nM | 0.1 to 50 nM | > 1000 nM |

The next lines start with the values.

| IC50 (TLR2 [1]) | EC50 (TLR2 [2]; average of all runs (Table 3)) | EC50 (TLR2 [2]; average of all runs (Table 4)) | EC50 (TLR2 [3]) | EC50 (TLR2 [4]) | SMILES |
| --- | --- | --- | --- | --- | --- |
| 351 to 1000 nM | > 1000 nM | – | – | – | CCCCCCCCCCCCCCNC(=O)C1CN(C(=O)c2ccc(C(=O)N3C[C@@H](C(=O)N[C@H]4C[C@@H]4c4ccccc4)[C@H](C(=O)N[C@H]4C[C@@H]4c4ccccc4)C3)cc2)CCN1C(C)=O (stereo partly drawn) [Compound 024] |
| 351 to 1000 nM | > 1000 nM | – | – | – | CCCCCCCC(=O)N1CCN(S(=O)(=O)c2ccc(C(=O)N3C[C@@H](C(=O)N[C@H]4C[C@@H]4c4ccccc4)[C@H](C(=O)N[C@H]4C[C@@H]4c4ccccc4)C3)cc2)CC1C(=O)NCCCCCC (stereo partly drawn) [Compound 053] |
| 351 to 1000 nM | – | > 1000 nM | – | – | CCCCCCCC(=O)N1CCN(S(=O)(=O)c2ccc(C(=O)N3C[C@@H](C(=O)N[C@H]4C[C@@H]4c4ccccc4)[C@H](C(=O)N[C@H]4C[C@@H]4c4ccccc4)C3)cc2)C[C@H]1C(=O)NCCCCCC [Compound 160, (3S,4S)-1-(4-(((S)-3-(hexylcarbamoyl)-4-octanoylpiperazin-1-yl)sulfonyl)benzoyl)-N3,N4-bis((1S,2R)-2-phenylcyclopropyl)pyrrolidine-3,4-dicarboxamide] |
| – | 0.1 to 50 nM | – | 0.1 to 50 nM | – | CCCCCCCC(=O)N1CCN(C(=O)c2ccc(C(=O)N3C[C@@H](C(=O)N[C@H]4C[C@@H]4c4ccccc4)[C@H](C(=O)N[C@H]4C[C@@H]4c4ccccc4)C3)cc2)C[C@@H]1C(=O)NCCCCCC [Compound 032, (3S,4S)-1-(4-((R)-3-(hexylcarbamoyl)-4-octanoylpiperazine-1-carbonyl)benzoyl)-N3,N4-bis((1S,2R)-2-phenylcyclopropyl)pyrrolidine-3,4-dicarboxamide] |
| – | 51 to 350 nM | – | 0.1 to 50 nM | – | CCCCCCCCN1C(=O)CN(C(=O)c2ccc(C(=O)N3C[C@@H](C(=O)N[C@H]4C[C@@H]4c4ccccc4)[C@H](C(=O)N[C@H]4C[C@@H]4c4ccccc4)C3)cc2)C[C@@H]1C(=O)NCCCCCC [Compound 075, (3S,4S)-1-(4-((R)-3-(hexylcarbamoyl)-4-octyl-5-oxopiperazine-1-carbonyl)benzoyl)-N3,N4-bis((1S,2R)-2-phenylcyclopropyl)pyrrolidine-3,4-dicarboxamide] |
